pIC50: −log10 of the molar value.
Assays:
[1] = test system: intraocular pressure; test: Acute IOP response in lasered (hypertensive) eyes of conscious cynomolgus monkeys; format: in vivo, cynomolgus monkey; conditions: single topical ocular application of 300 μg; IOP at 1, 3 and 6 hours
Description: Acute IOP Response in Lasered (Hypertensive) Eyes of Conscious Cynomolgus Monkeys.
Intraocular pressure (IOP) was determined with an Alcon Pneumatonometer after light corneal anesthesia with 0.1% proparacaine. Eyes were washed with saline after each measurement. After a baseline IOP measurement, the test compound was instilled in one 30 μL aliquot to the right eyes only of nine cynomolgus monkeys. The vehicle was instilled in the right eyes of six additional animals. Subsequent IOP measurements were taken at 1, 3, and 6 hours.

[2] = Penetration of the cornea following topical ocular administration; format: in vivo
Source text: The use of topical ocular administration is therefore strongly preferred in the present invention.

[3] = test system: intraocular pressure; conditions: administered orally for at least one year; cited from earlier work
[4] = test system: CTGF gene expression in cultured human trabecular meshwork (TM) cells; test: Inhibition of TGFβ2 stimulated CTGF gene expression (QPCR, CTGF/18S cDNA); format: cell-based
Description: FIGS. 1-3 are graphs setting forth the effects of statins on basal and TGFβ2-induced CTGF gene expression in cultured human trabecular meshwork cells.
The effectiveness of statins on CTGF gene expression in cultured human trabecular meshwork (TM) cells was studied. In these experiments, the CTGF/18S cDNA levels were measured by quantitative reverse-transcription PCR (QPCR) and compared.

[5] = test system: GTM-3 cells; test: GTM-3 cell viability (neutral red uptake); format: cell-based, human; conditions: 24 h, FIG. 5
Description: (§1) FIG. 5 depicts bar graphs showing the effect of lovastatin on GTM-3 cell fibronectin secretion and viability. Transformed human trabecular meshwork (GTM-3) cells were incubated in the presence or absence of test agents in serum-free DMEM media for 24 h (37° C., 5% CO2). Cell supernatants were then assayed for fibronectin content by ELISA and cell monolayers were assayed for viability by neutral red uptake.
(§2) The effect of lovastatin on both basal (vehicle) and stimulated (TGF32) GTM-3 (a transformed human TM cell strain) secretion of fibronectin was tested. GTM-3 cells were incubated in the presence or absence of test agents in serum-free media for 24 h (37° C., 5% CO2), then changes in secreted fibronectin levels were determined by ELISA of cell supernatants. Neutral red uptake assays were performed on the remaining cell monolayers, in order to determine the effect of test agents on GTM-3 cell viability. […] Thus, by virtue of the ability to reduce the excessive accumulation of extracellular matrix (e.g. fibronectin), statins are useful in the treatment of glaucoma and to control or lower IOP.

[6] = test system: fibronectin secretion by GTM-3 cells; test: Inhibition of TM fibronectin secretion (ELISA of cell supernatants); format: cell-based, human; conditions: 24 h, FIG. 5
Description: as §1, §2

[7] = test system: intraocular pressure; test: IOP response in lasered (hypertensive) eyes of conscious cynomolgus monkeys following repeated dosing; format: in vivo, cynomolgus monkey
Description: Response in Lasered (Hypertensive) Eyes of Conscious Cynomolgus Monkeys Following Repeated Dosing.
In a further study, the intraocular pressure-lowering efficacy of lovastatin was measured in conscious ocular hypertensive monkeys using a five-dose, three-day study design. The test item was administered in one 30 μL aliquot to the lasered (unilateral laser trabeculoplasty) eye of eight animals. The vehicle was instilled in the lasered eyes of six additional animals as a control. Doses 1, 3, and 5 were instilled at 0900 hours on three consecutive days; doses 2 and 4 at 1630 hours on days 1 and 2. IOP was measured at 1, 3 and 6 hours after doses 1 and 5. IOP was also measured at 16 hours after dose 4. The percent change from time 0 baseline was determined for each animal for every IOP measurement.
There was an average reduction in IOP of 12.5% in the control group. In a subsequent study, wherein nine doses of lovastatin were administered over a five day period, IOP was reduced by up to 7.4%.

[8] = 1 hour after fifth topical ocular instillation of 300 μg
[9] = 3 hours after fifth topical ocular instillation of 300 μg
[10] = 6 hours after fifth topical ocular instillation of 300 μg

| SMILES | IOP lowering after single topical ocular application [1] | ability to reach intraocular tissues via penetration of the cornea [2] | change in intraocular pressure in patients [3] | CTGF gene expression by cultured human TM cells [4] | further results |
| --- | --- | --- | --- | --- | --- |
| CC(C)c1c(C(=O)Nc2ccccc2)c(-c2ccccc2)c(-c2ccc(F)cc2)n1CC[C@@H](O)C[C@@H](O)CC(=O)O (relative stereo) [atorvastatin, (βR,δR)-2-(4-fluorophenyl)-β,δ-dihydroxy-5-(1-methylethyl)-3-phenyl-4-[(phenylamino)carbonyl]-1H-Pyrrole-1-heptanoic acid] | did not significantly lower IOP | do not readily penetrate the cornea | – | – | – |
| CC(C)n1c(/C=C/[C@@H](O)C[C@@H](O)CC(=O)O)c(-c2ccc(F)cc2)c2ccccc21 (relative stereo) [fluvastatin, (3R,5S,6E)-rel-7-[3-(4-fluorophenyl)-1-(1-methylethyl)-1H-indol-2-yl]-3,5-dihydroxy-6-heptenoic acid] | did not significantly lower IOP | – | – | – | – |
| CC[C@H](C)C(=O)O[C@H]1C[C@H](O)C=C2C=C[C@H](C)[C@H](CC[C@@H](O)CC(O)CC(=O)O)[C@H]21 (stereo in doubt) [pravastatin, (βR,δR,1S,2S,6S,8S,8aR)-1,2,6,7,8,8a-hexahydro-β,δ,6-trihydroxy-2-methyl-8-[(2S)-2-methyl-1-oxobutoxy]-1-naphthaleneheptanoic acid] | did not significantly lower IOP | able to reach intraocular tissues via penetration of the cornea | – | – | – |
| CC[C@H](C)C(=O)O[C@H]1C[C@@H](C)C=C2C=C[C@H](C)[C@H](CC[C@@H]3C[C@@H](O)CC(=O)O3)[C@H]21 [lovastatin, 2(S)-2-methyl-butanoic acid (1S,3R,7S,8S,8aR)-1,2,3,7,8,8a-hexahydro-3,7-dimethyl-8-[2-[(2R,4R)-tetrahydro-4-hydroxy-6-oxo-2H-pyran-2-yl]ethyl]-1-naphthalenyl ester] | did not significantly lower IOP | – | no clinically significant change in intraocular pressure | significantly reduce | pIC50 ([4]; dose-dependent, FIG. 3): 7.12; GTM-3 cell viability [5]: without affecting cell viability; TGFβ2-stimulated fibronectin secretion ([6]; serum-free media): suppressed; basal fibronectin secretion ([6]; vehicle (basal)): suppression; average IOP lowering [7, 8]: 8.3 mmHg; average IOP lowering, percent change from baseline [7, 8]: 22.8%; average IOP lowering [7, 9]: 8.1 mmHg; average IOP lowering, percent change from baseline [7, 9]: 21.5%; average IOP lowering [7, 10]: 9.5 mmHg; average IOP lowering, percent change from baseline [7, 10]: 25.5%; IOP reduction ([7]; subsequent study, nine doses over a five day period): up to 7.4% |
| CC[C@H](C)C(=O)O[C@H]1CCC=C2C=C[C@H](C)[C@H](CC[C@@H]3C[C@@H](O)CC(=O)O3)[C@H]21 [mevastatin, (2S)-2-methyl butanoic acid (1S,7S,8S,8aR)-1,2,3,7,8,8a-hexahydro-7-methyl-8-[2-[(2R,4R)-tetrahydro-4-hydroxy-6-oxo-2H-pyran-2-yl]ethyl]-1-naphthalenyl ester] | – | – | – | significantly reduce | – |
| CCC(C)(C)C(=O)O[C@H]1C[C@@H](C)C=C2C=C[C@H](C)[C@H](CC[C@@H]3C[C@@H](O)CC(=O)O3)[C@H]21 [simvastatin, 2,2-dimethyl-butanoic acid (1S,3R,7S,8S,8aR)-1,2,3,7,8,8a-hexahydro-3,7-dimethyl-8-[2-[(2R,4R)-tetrahydro-4-hydroxy-6-oxo-2H-pyran-2-yl]ethyl]-1-naphthalenyl ester] | – | – | no clinically significant change in intraocular pressure | significantly reduce | – |
